The structures appear in SMILES notation.

The text below walks through data of patent US20260374773A1, “MULTI-CYCLIC IRAK AND FLT3 INHIBITING COMPOUNDS AND USES THEREOF” (CHILDREN'S HOSPITAL MEDICAL CENTER, priority 2022, published 2026).

Holding throughout (type): biochemical
Holding throughout (conditions): Table 11; isolated kinase, 33P-ATP, 2 h

Test [1] addresses IRAK1 (Homo sapiens, UniProt P51617). Nature of the test: RBC HotSpot kinase inhibition assay, IRAK1.
Source text: (§1) This assay uses the isolated kinase enzyme. This assay is very useful for determining competition of the inhibitor for ATP and/or substrates and for measuring the kinetics of enzyme inhibition. […] Unlike kinase binding assays that measure competition for ATP, the HotSpot Kinase Assay is a functional assay that measures catalytic activity; as such it measures relative functional potency regardless of the mechanism of enzyme inhibition. This assay uses the form of the various enzymes that are easiest to express, which may not necessarily be the form of the enzyme that exist in the cell. (Sometimes the carboxy terminus has been truncated to aid in expression, or, if it is a receptor kinase, the enzyme itself is isolated from the other parts of the receptor that are involved in regulating kinase activity.)
(§2) The reagent used was as follows: Base Reaction buffer; 20 mM Hepes (pH 7.5), 10 mM MgCl2, 1 mM EGTA, 0.01% Brij35, 0.02 mg/ml BSA, 0.1 mM Na3VO4, 2 mM DTT, 1% DMSO. Required cofactors were added individually to each kinase reaction.
(§3) The reaction procedure was as follows: • 1) Substrates were prepared in freshly prepared Reaction Buffer. • 2) Any required cofactors were delivered to the substrate solution above. • 3) Kinase was delivered into the substrate solution and gently mixed. • 4) Compounds were delivered in 100% DMSO into the kinase reaction mixture by Acoustic technology (Echo550; nanoliter range), followed by incubation for 20 min at room temp. • 5) ^33P-ATP was delivered into the reaction mixture to initiate the reaction. • 6) The mixture was incubated for 2 hours at room temperature. • 7) Kinase activity was detected by P81 filter-binding method.
as §1, with “Although not wishing to be limited by theory, it is believed that sometimes” for “(Sometimes”, “activity.” for “activity.)”
(§4) The reagent used was as follows: Base Reaction buffer; 20 mM Hepes (pH 7.5), 10 mM MgCl2, 1 mM EGTA, 0.01% Brij35, 0.02 mg/ml BSA, 0.1 mM Na3 VO4, 2 mM DTT, 1% DMSO.
(§5) Required cofactors were added individually to each kinase reaction.
as §3, with “33P-ATP” for “^33P-ATP”

The target in test [2] is T1, IRAK4 (Homo sapiens, UniProt Q9NWZ3).
T1 sequence (Q9NWZ3 1-460): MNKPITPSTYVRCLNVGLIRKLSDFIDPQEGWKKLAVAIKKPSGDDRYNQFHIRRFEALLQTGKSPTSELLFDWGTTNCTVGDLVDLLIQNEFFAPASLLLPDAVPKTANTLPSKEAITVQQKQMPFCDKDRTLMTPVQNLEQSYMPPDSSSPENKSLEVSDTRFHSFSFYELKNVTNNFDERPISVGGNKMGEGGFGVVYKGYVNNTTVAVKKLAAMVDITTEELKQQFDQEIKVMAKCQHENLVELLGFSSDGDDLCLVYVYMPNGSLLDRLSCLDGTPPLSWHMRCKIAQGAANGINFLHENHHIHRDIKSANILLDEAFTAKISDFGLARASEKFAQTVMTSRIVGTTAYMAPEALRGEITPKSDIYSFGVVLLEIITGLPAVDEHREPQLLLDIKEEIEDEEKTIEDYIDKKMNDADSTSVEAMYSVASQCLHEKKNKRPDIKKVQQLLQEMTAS
Nature of the test: RBC HotSpot kinase inhibition assay, IRAK4.
Source text: as §1, §2, §3
as §1, with “Although not wishing to be limited by theory, it is believed that sometimes” for “(Sometimes”, “activity.” for “activity.)”
as §4, §5
as §3, with “33P-ATP” for “^33P-ATP”

The target in test [3] is T2, FLT3 (Homo sapiens, UniProt P36888).
T2 sequence (P36888 27-993): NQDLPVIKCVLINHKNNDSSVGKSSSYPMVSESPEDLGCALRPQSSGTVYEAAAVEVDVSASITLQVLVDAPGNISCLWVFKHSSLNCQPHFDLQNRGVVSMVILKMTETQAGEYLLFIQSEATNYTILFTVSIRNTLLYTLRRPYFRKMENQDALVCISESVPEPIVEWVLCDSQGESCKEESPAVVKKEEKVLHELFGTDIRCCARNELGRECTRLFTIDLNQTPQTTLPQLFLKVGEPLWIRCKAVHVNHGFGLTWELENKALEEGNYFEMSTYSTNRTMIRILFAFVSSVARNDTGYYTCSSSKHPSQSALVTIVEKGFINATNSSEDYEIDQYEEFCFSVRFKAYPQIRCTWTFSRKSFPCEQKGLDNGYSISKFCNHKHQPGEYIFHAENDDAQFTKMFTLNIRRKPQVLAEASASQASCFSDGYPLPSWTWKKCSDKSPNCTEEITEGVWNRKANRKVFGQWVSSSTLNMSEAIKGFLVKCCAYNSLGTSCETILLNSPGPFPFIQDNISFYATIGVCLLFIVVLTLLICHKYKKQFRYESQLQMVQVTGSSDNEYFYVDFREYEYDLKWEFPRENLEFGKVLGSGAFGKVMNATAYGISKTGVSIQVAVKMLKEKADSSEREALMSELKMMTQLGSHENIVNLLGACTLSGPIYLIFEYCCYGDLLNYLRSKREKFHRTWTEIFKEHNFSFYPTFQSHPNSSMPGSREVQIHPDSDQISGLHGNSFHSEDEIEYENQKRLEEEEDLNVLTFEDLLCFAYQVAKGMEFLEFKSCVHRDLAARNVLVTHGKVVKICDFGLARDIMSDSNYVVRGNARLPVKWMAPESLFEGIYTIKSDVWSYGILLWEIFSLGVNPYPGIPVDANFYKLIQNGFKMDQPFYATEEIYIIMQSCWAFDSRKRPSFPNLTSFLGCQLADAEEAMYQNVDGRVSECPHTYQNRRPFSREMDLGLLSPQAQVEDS
As to the kind of experiment: RBC HotSpot kinase inhibition assay, FLT3.
Source text: as §1, §2, §3
as §1, with “Although not wishing to be limited by theory, it is believed that sometimes” for “(Sometimes”, “activity.” for “activity.)”
as §4, §5
as §3, with “33P-ATP” for “^33P-ATP”

IRAK1, sequence (P51617 whole entry, the tested form may be a part): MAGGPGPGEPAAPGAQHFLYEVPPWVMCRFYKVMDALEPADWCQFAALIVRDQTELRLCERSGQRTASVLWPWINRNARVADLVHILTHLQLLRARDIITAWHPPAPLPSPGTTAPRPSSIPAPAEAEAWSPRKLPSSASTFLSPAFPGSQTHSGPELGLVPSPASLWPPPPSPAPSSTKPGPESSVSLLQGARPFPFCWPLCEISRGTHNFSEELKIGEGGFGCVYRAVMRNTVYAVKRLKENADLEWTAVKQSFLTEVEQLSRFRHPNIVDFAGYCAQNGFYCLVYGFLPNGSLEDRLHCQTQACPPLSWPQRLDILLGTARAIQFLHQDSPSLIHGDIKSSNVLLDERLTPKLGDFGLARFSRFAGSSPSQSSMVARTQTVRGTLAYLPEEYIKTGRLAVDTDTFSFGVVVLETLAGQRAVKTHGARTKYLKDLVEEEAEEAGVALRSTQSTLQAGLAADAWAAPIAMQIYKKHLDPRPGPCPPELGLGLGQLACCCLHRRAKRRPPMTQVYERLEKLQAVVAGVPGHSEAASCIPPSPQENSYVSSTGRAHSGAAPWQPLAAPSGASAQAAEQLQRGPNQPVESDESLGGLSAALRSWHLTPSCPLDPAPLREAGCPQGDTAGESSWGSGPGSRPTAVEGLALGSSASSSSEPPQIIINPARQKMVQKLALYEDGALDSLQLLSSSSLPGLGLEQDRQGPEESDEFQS

`COc1cn2ncc(-c3nc(N[C@@H]4CCCNC4)c(C#N)cc3F)c2nc1C1CC1` [Compound 8, (R)-6-(5-cyclopropyl-6-methoxypyrazolo[1,5-a]pyrimidin-3-yl)-5-fluoro-2-(piperidin-3-ylamino)nicotinonitrile]: the half-maximal inhibitory concentration (IC50) in test [1], in test [2] and in test [3] was less than 0.5 nM in each case.

For `F[C@H]1CNC[C@@H]1Nc1cccc(-c2cnn3cc(Cl)cnc23)n1` [Compound 14, 6-(6-chloropyrazolo[1,5-a]pyrimidin-3-yl)-N-((3S,4S)-4-fluoropyrrolidin-3-yl)pyridin-2-amine], the concentration for half-maximal inhibition (IC50) (as a rule, the point on the concentration scale where inhibition reaches its midpoint) in test [1] stood at 6220 nM; in test [2] it was 491 nM; in test [3] it was 32 nM.

As to `F[C@H]1CNC[C@@H]1Nc1cccc(-c2cnn3cc(C4CC4)cnc23)n1` [Compound 15, 6-(6-cyclopropylpyrazolo[1,5-a]pyrimidin-3-yl)-N-((3S,4S)-4-fluoropyrrolidin-3-yl)pyridin-2-amine], the figures for the 50% inhibitory concentration (IC50) in test [1], in test [2] and in test [3] were 1290 nM, 267 nM and 15 nM, respectively.

Take `FC(F)COc1cnc2c(-c3cccc(N[C@H]4CNC[C@@H]4F)n3)cnn2c1` [Compound 16, 6-(6-(2,2-difluoroethoxy)pyrazolo[1,5-a]pyrimidin-3-yl)-N-((3S,4S)-4-fluoropyrrolidin-3-yl)pyridin-2-amine]: the half-inhibitory concentration (IC50) in test [1] was found to be 4300 nM; in test [2], 61 nM; in test [3], 4 nM.

With `CC(C)Oc1cnc2c(-c3cccc(N[C@H]4CNC[C@@H]4F)n3)cnn2c1` [Compound 17, N-((3S,4S)-4-fluoropyrrolidin-3-yl)-6-(6-isopropoxypyrazolo[1,5-a]pyrimidin-3-yl)pyridin-2-amine], the values for the IC50 in test [1], in test [2] and in test [3] were 3510 nM, 295 nM and 19 nM, respectively.

With `COc1cnc2c(-c3cccc(N[C@H]4CNC[C@@H]4F)n3)cnn2c1` [Compound 18, N-((3S,4S)-4-fluoropyrrolidin-3-yl)-6-(6-methoxypyrazolo[1,5-a]pyrimidin-3-yl)pyridin-2-amine], the 50% inhibitory concentration (IC50) in test [1] came to 2320 nM; in test [2] it was 72 nM; in test [3], 18 nM.
